Results on one compound are retold here after US12239134B2, “Plant antimicrobial compositions including an emulsifier and/or ozone and methods of use” (Arizona Board of Regents on Behalf of The University of …, priority 2018, dated 2025).

Molecules are shown by their SMILES.

The subject of experiment [1] is mesophilic and psychrotrophic bacteria. The conditions noted are these: 3 minutes (Kim et al. 1999); cited from earlier work.
Experiment [2] has as its system Salmonella enterica serovar Newport SN78. In words: Ozone-plant antimicrobial wash of inoculated iceberg lettuce leaves. To be noted: ozonated wash. The class given is cell-based. The protocol: Bacterial culture: Salmonella enterica serovar Newport SN78 (bovine isolate; provided by Dr. Marilyn Erickson, University of Georgia, Griffin, GA) was used for this experiment. Dual antibiotic resistance (100 μg/ml ampicillin and 25 μg/ml streptomycin, Amresco, Solon, OH) was developed in the strain through incremental antibiotic exposure. […] The frozen stock culture was initially revived through two transfers into brain heart infusion broth (BHIB) (Becton, Dickinson and Co (BD), Sparks, MD) followed by isolation on xylose lysine desoxycholate (XLD) agar (Becton, Dickinson and Co (BD), Sparks, MD) containing 100 μg/ml ampicillin and 25 μg/ml streptomycin.
Inoculum Preparation: For each experiment, a 20 hour overnight culture was prepared by inoculating 100 μl of the culture in 30 ml of tryptic soy broth (TSB) containing 100 μg/ml ampicillin and 25 μg/ml streptomycin and incubating at 37° C. in a desktop orbital shaker at 200 rpm (MaxQ 4450, Thermo Scientific, Dubuque, IA, USA). The cells in the medium were pelleted by centrifugation at 4000 g (Eppendorf Model 5810, Hamburg, Germany) and the supernatant was discarded. […]. The four outer leaves of the iceberg lettuce were removed and discarded. Whole leaf samples (10 g±0.5 g each) were used. The iceberg lettuce samples were inoculated by immersing 10 g portions into the PBS-S. Newport suspension for 2 minutes. After immersion, the excess culture suspension was allowed to drain from the leaf and the leaves were allowed to dry in a biohood for 1 hour to aid in the attachment of S. Newport to the leaf surface.
Antimicrobial wash solution preparation: The test plant-based antimicrobials used in this study consisted of oregano oil made from pure Origanum vulgare (Lhasa Karnak Company, Berkeley, California), its active component carvacrol (98% pure, molecular weight 150.2, CAS no. 499-75-2, Sigma, St. Louis, MO), olive extract (CreAgri, Hayward, CA), and quillaja saponin made from Quillaja saponaria (Sigma Aldrich, St. Louis, MO). […]

For experiment [3], the system named is total plate counts. To be noted: Wang et al. 2004; cited from earlier work.

For the compound `O=[O+][O-]` [ozonized water, ozone], in experiment [1], the “decreased counts of mesophilic bacteria on shredded lettuce” value was 1.4 log CFU/g. For the same compound, the “decreased counts of psychrotrophic bacteria on shredded lettuce” value in experiment [1] is 1.8 log CFU/g. Also, the “reduction in S. Newport population on iceberg lettuce leaves” value in experiment [2] (60 min) was found to be 1.76±0.27 log CFU/g; in experiment [2] (90 min), 1.67±0.28 log CFU/g; in experiment [2] (120 min), 2.09±0.54 log CFU/g. Besides, the “total plate counts on cilantro leaves after treatment” value in experiment [3] was “did not decrease total plate counts”.
